Data from ChEMBL document CHEMBL5154793, “Discovery of Thieno[2,3-d]pyrimidine-based KRAS G12D inhibitors as potential anticancer agents via combinatorial virtual screening” (Eur J Med Chem, 2022).
Active and inactive are the calls of the source. No cut-off for these calls is given here.

Columns and labels:
[1] = biological target: GTPase KRas (Homo sapiens) (UniProt P01116); assay: Inhibition of wild type KRAS (unknown origin) downstream signalling in human HCT-116 cells assessed as suppression of Raf phosphorylation incubated 24 hrs by pull down based Western blotting analysis; format: cell-based; details: dose <= 8.0 µM, DDE = dose-dependent effect
Chain of GTPase KRas (Homo sapiens) (P01116 whole entry, looked up): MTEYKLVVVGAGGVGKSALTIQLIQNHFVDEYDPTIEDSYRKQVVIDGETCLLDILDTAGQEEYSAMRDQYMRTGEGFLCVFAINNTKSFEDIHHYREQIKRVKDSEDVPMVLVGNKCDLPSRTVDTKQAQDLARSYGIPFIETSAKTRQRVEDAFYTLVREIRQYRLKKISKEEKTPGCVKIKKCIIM

SW1990 [2] = assay: Induction of apoptosis in human SW1990 cells assessed as early apoptotic cells at 2 uM measured after 24 hrs by PI/Annexin V staining based flow cytometric analysis (reference value: 10.7%); format: functional
CT26 [3] = assay: Antitumor activity against mouse CT26 cells allografted in BALB/c mouse assessed as inhibition of tumor growth at 40 mg/kg, ip administered once a day for 10 days; format: functional; details: CT26, 240 h, time 10 day, read-out: TGI
[4] = system: GTPase KRas (Homo sapiens), P01116 [G12D]; assay: Inhibition of KRAS G12D mutant (unknown origin) downstream signalling in human SW1990 cells assessed as suppression of Raf phosphorylation incubated for 24 hrs by pull down based Western blotting analysis; format: cell-based; details: dose <= 16.0 µM, DDE = dose-dependent effect
Chain of GTPase KRas (Homo sapiens), P01116 [G12D] (P01116 whole entry G12D, looked up): as the sequence (P01116 whole entry, looked up) above, with G12D counted along it

SW1990 [5] = assay: Induction of apoptosis in human SW1990 cells assessed as early apoptotic cells at 4 uM measured after 24 hrs by PI/Annexin V staining based flow cytometric analysis (reference value: 10.7%); format: functional
CT26 [6] = assay: Induction of apoptosis in mouse CT26 cells assessed as early apoptotic cells at 8 uM measured after 24 hrs by PI/Annexin V staining based flow cytometric analysis (reference value: 11.2%); format: functional
SW1990 [7] = assay: Induction of apoptosis in human SW1990 cells assessed as necrotic cells at 2 uM measured after 24 hrs by PI/Annexin V staining based flow cytometric analysis (reference value: 2.69%); format: functional
CT26 [8] = assay: Induction of apoptosis in mouse CT26 cells assessed as viable cells at 2 uM measured after 24 hrs by PI/Annexin V staining based flow cytometric analysis (reference value: 84.8%); format: functional; details: read-out: Activity
CT26 [9] = assay: Induction of apoptosis in mouse CT26 cells assessed as necrotic cells at 4 uM measured after 24 hrs by PI/Annexin V staining based flow cytometric analysis (reference value: 0.789%); format: functional
CT26 [10] = assay: In vivo inhibition of KRAS G12D mutant (unknown origin) mediated downstream signalling in mouse CT26 cells allografted in BALB/c mouse assessed as decrease in phosphorylation level of ErK in tumor tissue at 40 to 60 mg/kg, ip administered once a day for 10 days by Western blotting analysis; format: functional, organism-based; details: dose 40-60 mg/kg, time 10.0 day
CT26 [11] = assay: Induction of apoptosis in mouse CT26 cells assessed as viable cells at 8 uM measured after 24 hrs by PI/Annexin V staining based flow cytometric analysis (reference value: 84.8%); format: functional; details: read-out: Activity
[12] = Toxicity in BALB/c mouse allografted with mouse CT26 cells assessed as HGB level at 40 to 60 mg/kg, ip administered once a day for 10 days (reference value: 0.319 to 108 g/L); format: organism-based; details: in vivo, 240 h, dose 40-60 mg/kg, time 10 day
[13] = Toxicity in BALB/c mouse allografted with mouse CT26 cells assessed as monocyte level at 40 to 60 mg/kg, ip administered once a day for 10 days (reference value: 0.170 to 0.540 10^9/L); format: organism-based; details: in vivo, 240 h, dose 40-60 mg/kg, time 10 day
[14] = biological target: GTPase KRas (Homo sapiens) (UniProt P01116); assay: Inhibition of wild type KRAS (unknown origin) downstream signalling in human HCT-116 cells assessed as suppression of ERK phosphorylation incubated for 24 hrs by pull down based Western blotting analysis; format: cell-based; details: dose <= 8.0 µM, DDE = dose-dependent effect
SW1990 [15] = assay: Induction of apoptosis in human SW1990 cells assessed as necrotic cells at 8 uM measured after 24 hrs by PI/Annexin V staining based flow cytometric analysis (reference value: 2.69%); format: functional
CT26 [16] = assay: Induction of apoptosis in mouse CT26 cells assessed as early apoptotic cells at 4 uM measured after 24 hrs by PI/Annexin V staining based flow cytometric analysis (reference value: 11.2%); format: functional
CT26 [17] = assay: Antitumor activity against mouse CT26 cells allografted in BALB/c mouse assessed as inhibition of tumor growth at 60 mg/kg, ip administered once a day for 10 days; format: functional; details: CT26, 240 h, time 10 day, read-out: TGI
[18] = Toxicity in BALB/c mouse allografted with mouse CT26 cells assessed as lymphocyte level at 40 to 60 mg/kg, ip administered once a day for 10 days (reference value: 5.6 to 35.2 %); format: organism-based; details: in vivo, 240 h, dose 40-60 mg/kg, time 10 day
[19] = system: GTPase KRas (Homo sapiens), P01116 [G12D]; assay: Binding affinity to human his-tagged KRAS G12D mutant assessed as change in enthalpy by isothermal titration calorimetry
[20] = Toxicity in BALB/c mouse allografted with mouse CT26 cells assessed as MCV level at 40 to 60 mg/kg, ip administered once a day for 10 days (reference value: 16 to 47 fL); format: organism-based; details: in vivo, 240 h, dose 40-60 mg/kg, time 10 day
[21] = Toxicity in BALB/c mouse allografted with mouse CT26 cells assessed as WBC level at 40 to 60 mg/kg, ip administered once a day for 10 days (reference value: 3.090 to 6.730 10^9/L); format: organism-based; details: in vivo, 240 h, dose 40-60 mg/kg, time 10 day
CT26 [22] = assay: Induction of apoptosis in mouse CT26 cells assessed as necrotic cells at 2 uM measured after 24 hrs by PI/Annexin V staining based flow cytometric analysis (reference value: 0.789%); format: functional
CT26 [23] = assay: Induction of apoptosis in mouse CT26 cells assessed as early apoptotic cells at 2 uM measured after 24 hrs by PI/Annexin V staining based flow cytometric analysis (reference value: 11.2%); format: functional
SW1990 [24] = assay: Induction of apoptosis in human SW1990 cells assessed as viable cells at 4 uM measured after 24 hrs by PI/Annexin V staining based flow cytometric analysis (reference value: 82.9%); format: functional; details: read-out: Activity
SW1990 [25] = assay: Induction of apoptosis in human SW1990 cells assessed as late apoptotic cells at 8 uM measured after 24 hrs by PI/Annexin V staining based flow cytometric analysis (reference value: 3.75%); format: functional
[26] = Toxicity in BALB/c mouse allografted with mouse CT26 cells assessed as effect on heart morphology at 40 to 60 mg/kg, ip administered once a day for 10 days by H and E staining based microscopic analysis; format: organism-based; details: in vivo, 240 h, dose 40-60 mg/kg, time 10 day
CT26 [27] = assay: Inhibition of GTP bound KRAS in mouse CT26 cells assessed as down regulation of KRAS-GTP protein level incubated for 12 hrs by Pull-Down based Western blotting analysis; format: functional, cell-based; details: dose 10-20 µM, DDE = dose-dependent effect
CT26 [28] = assay: Antitumor activity against mouse CT26 cells allografted in BALB/c mouse assessed as tumor volume at 40 mg/kg, ip administered once a day for 10 days; format: functional; details: time 10 day
HeLa = assay: Antiproliferative activity against human HeLa cells harboring wild type KRAS assessed as inhibition of cell viability after 24 hrs by MTT assay; format: functional, cell-based
SW1990 [29] = assay: Induction of apoptosis in human SW1990 cells assessed as viable cells at 2 uM measured after 24 hrs by PI/Annexin V staining based flow cytometric analysis (reference value: 82.9%); format: functional; details: read-out: Activity
[30] = Toxicity in BALB/c mouse allografted with mouse CT26 cells assessed as RDW-CV level at 40 to 60 mg/kg, ip administered once a day for 10 days (reference value: 13.3 to 23.8 %); format: organism-based; details: in vivo, 240 h, dose 40-60 mg/kg, time 10 day

- Activity [1]: Dde
- Activity [4]: Dde
- Activity [14]: Dde
- deltaH [19]: -26.6 kcal/mol
- IC50 (HeLa): 7.4 µM
SMILES: COc1ccc(C(F)(F)F)cc1-c1cc2c(N3CC4CCC(C3)N4)ncnc2s1
- Activity (SW1990 [2]): 3.87%
- inhibition in vivo at 40 mg/kg (CT26 [3]): 42%
- Activity (SW1990 [5]): 14.2%
- Activity (CT26 [6]): 24.4%
- Activity (SW1990 [7]): 3.11%
- viability at 2 µM (CT26 [8]): 78.6%
- Activity (CT26 [9]): 3.87%
- Activity (CT26 [10]): Active
- viability at 8 µM (CT26 [11]): 8.57%
- Activity [12]: 0.41 g/L
- Activity [13]: 0.15 10^9/L
- Activity (SW1990 [15]): 1.81%
- Activity (CT26 [16]): 36.4%
- inhibition in vivo at 60 mg/kg (CT26 [17]): 53%
- Activity [18]: 4.9%
- Activity [20]: 16.1 fL
- Activity [21]: 5.05 10^9/L
- Activity (CT26 [22]): 1.39%
- Activity (CT26 [23]): 15.4%
- viability at 4 µM (SW1990 [24]): 47.9%
- Activity (SW1990 [25]): 56.9%
- Activity [26]: Non-Toxic
- inhibition (CT26 [27]): Dde
- Activity (CT26 [28]): 17%
- viability at 2 µM (SW1990 [29]): 74.4%
- Activity [30]: 14%
